Test results as given in ChEMBL document CHEMBL5724914, “Linking interpersonal differences in gut microbiota composition and drug biotransformation activity” (2024).

Experiments:
[1] = human gut metagenome, 24 h, 2 µM
[2] = (§1) The drug is tested on WLS-170 corresponding to human gut metagenome with ENA study accession number: PRJEB37062 and ENA sample accession number: ERS12561762 for biotransformation under anaerobic condition. The drug concentrations were measured over 9 timepoints collected between 0 and 24 hours of incubation by liquid-chromatography-coupled mass spectrometry (LC–MS); settings: 2 µM
[3] = as §1, with “WLS-077” for “WLS-170”, “ERS12561750” for “ERS12561762”; settings: 2 µM
[4] = human gut metagenome, 24 h, 2 µM; remark: listed apart in the source
[5] = as §1, with “Z-016” for “WLS-170”, “mouse” for “human”, “ERS12561815” for “ERS12561762”; settings: 2 µM
[6] = human gut metagenome, 24 h, 2 µM; remark: listed apart in the source
[7] = human gut metagenome, 24 h, 2 µM; remark: listed apart in the source
[8] = as §1, with “WLS-007” for “WLS-170”, “ERS12561742” for “ERS12561762”; settings: 2 µM
[9] = human gut metagenome, 24 h, 2 µM; remark: listed apart in the source
[10] = human gut metagenome, 24 h, 2 µM; remark: listed apart in the source
[11] = as §1, with “Z-021” for “WLS-170”, “to” for “to human gut”, “ERS12561820” for “ERS12561762”; settings: 2 µM
[12] = as §1, with “Z-010” for “WLS-170”, “to” for “to human gut”, “ERS12561810” for “ERS12561762”; settings: 2 µM
[13] = human gut metagenome, 24 h, 2 µM; remark: listed apart in the source
[14] = human gut metagenome, 24 h, 2 µM; remark: listed apart in the source
[15] = as §1, with “Z-023” for “WLS-170”, “to” for “to human gut”, “ERS12561822” for “ERS12561762”; settings: 2 µM
[16] = human gut metagenome, 24 h, 2 µM; remark: listed apart in the source
[17] = human gut metagenome, 24 h, 2 µM; remark: listed apart in the source
[18] = human gut metagenome, 24 h, 2 µM; remark: listed apart in the source
[19] = as §1, with “Z-019” for “WLS-170”, “rat” for “human”, “ERS12561818” for “ERS12561762”; settings: 2 µM
[20] = human gut metagenome, 24 h, 2 µM; remark: listed apart in the source
Also: call rule not given here.

Row | SMILES | Bacterial Biotransformation [1] | Bacterial Biotransformation [2] | Bacterial Biotransformation [3] | Bacterial Biotransformation [4] | Bacterial Biotransformation [5] | Bacterial Biotransformation [6] | Bacterial Biotransformation [7] | Bacterial Biotransformation [8] | Bacterial Biotransformation [9] | Bacterial Biotransformation [10] | Bacterial Biotransformation [11] | Bacterial Biotransformation [12] | Bacterial Biotransformation [13] | Bacterial Biotransformation [14] | Bacterial Biotransformation [15] | Bacterial Biotransformation [16] | Bacterial Biotransformation [17] | Bacterial Biotransformation [18] | Bacterial Biotransformation [19] | Bacterial Biotransformation [20]
1 | CN1CCC[C@@H]1CCO[C@](C)(c1ccccc1)c1ccc(Cl)cc1.O=C(O)/C=C/C(=O)O [CLEMASTINE FUMARATE] | Compound metabolized | Compound metabolized | Compound NOT metabolized | Compound metabolized | Compound NOT metabolized | Compound metabolized | Compound metabolized | Compound NOT metabolized | Compound metabolized | Compound NOT metabolized | Compound NOT metabolized | Compound NOT metabolized | Compound metabolized | Compound NOT metabolized | Compound NOT metabolized | Compound NOT metabolized | Compound NOT metabolized | Compound NOT metabolized | – | –
2 | COC1=C(OC)C(=O)C(CCCCCCCCCCO)=C(C)C1=O [IDEBENONE] | Compound metabolized | Compound NOT metabolized | Compound metabolized | Compound metabolized | Compound metabolized | – | – | Compound metabolized | – | Compound NOT metabolized | Compound metabolized | Compound metabolized | Compound metabolized | Compound NOT metabolized | Compound metabolized | Compound metabolized | – | – | Compound NOT metabolized | –
3 | CN1[C@@H]2CC[C@H]1C[C@@H](OC(=O)[C@H](CO)c1ccccc1)C2 [HYOSCYAMINE] | – | Compound metabolized | – | – | – | – | Compound NOT metabolized | Compound metabolized | – | Compound NOT metabolized | Compound NOT metabolized | – | Compound metabolized | Compound NOT metabolized | Compound NOT metabolized | – | – | Compound NOT metabolized | Compound NOT metabolized | Compound metabolized
4 | O=C1C(CC[S+]([O-])c2ccccc2)C(=O)N(c2ccccc2)N1c1ccccc1 (stereo unspecified) [SULFINPYRAZONE] | Compound metabolized | Compound metabolized | Compound metabolized | Compound metabolized | Compound NOT metabolized | Compound metabolized | Compound metabolized | Compound metabolized | Compound metabolized | Compound metabolized | Compound NOT metabolized | – | Compound metabolized | Compound metabolized | Compound metabolized | Compound metabolized | Compound metabolized | Compound metabolized | Compound NOT metabolized | Compound metabolized
5 | COc1ccc(Cc2nccc3cc(OC)c(OC)cc23)cc1OC [PAPAVERINE] | Compound metabolized | Compound metabolized | Compound NOT metabolized | Compound metabolized | Compound NOT metabolized | Compound metabolized | Compound metabolized | Compound metabolized | Compound metabolized | Compound metabolized | Compound metabolized | – | Compound metabolized | Compound metabolized | Compound metabolized | Compound metabolized | Compound metabolized | Compound metabolized | Compound NOT metabolized | Compound metabolized
6 | COc1ccc(/C=C/C(=O)Nc2ccccc2C(=O)O)cc1OC | Compound NOT metabolized | Compound NOT metabolized | Compound metabolized | Compound NOT metabolized | Compound metabolized | – | Compound metabolized | – | Compound NOT metabolized | Compound NOT metabolized | Compound metabolized | Compound metabolized | Compound NOT metabolized | Compound NOT metabolized | Compound metabolized | Compound NOT metabolized | Compound NOT metabolized | Compound NOT metabolized | Compound NOT metabolized | Compound metabolized
7 | CSc1ccc2c(c1)C(N1CCN(C)CC1)Cc1ccccc1S2.O=C(O)/C=C\C(=O)O (stereo unspecified) | Compound metabolized | Compound metabolized | – | – | Compound metabolized | Compound NOT metabolized | Compound NOT metabolized | Compound NOT metabolized | Compound NOT metabolized | Compound NOT metabolized | Compound metabolized | Compound metabolized | Compound metabolized | Compound NOT metabolized | Compound NOT metabolized | Compound NOT metabolized | Compound NOT metabolized | Compound NOT metabolized | – | Compound metabolized
8 | C#C[C@]1(OC(C)=O)CC[C@H]2[C@@H]3CCC4=CC(=O)CC[C@@H]4[C@H]3CC[C@@]21C [NORETHINDRONE ACETATE] | Compound NOT metabolized | Compound metabolized | – | – | – | Compound metabolized | – | – | Compound metabolized | Compound metabolized | Compound metabolized | Compound metabolized | Compound NOT metabolized | Compound NOT metabolized | Compound metabolized | Compound metabolized | – | Compound metabolized | Compound metabolized | Compound NOT metabolized
9 | CC(C)(C)NC(=O)[C@H]1CC[C@H]2[C@@H]3CC[C@H]4NC(=O)C=C[C@]4(C)[C@H]3CC[C@]12C [FINASTERIDE] | Compound metabolized | Compound metabolized | Compound metabolized | Compound NOT metabolized | Compound metabolized | Compound metabolized | Compound metabolized | Compound NOT metabolized | Compound metabolized | Compound NOT metabolized | Compound NOT metabolized | Compound metabolized | Compound metabolized | Compound NOT metabolized | Compound metabolized | Compound metabolized | Compound metabolized | Compound metabolized | – | Compound metabolized
10 | CCOC(=O)[C@H](CCc1ccccc1)N[C@@H](C)C(=O)N1CCC[C@H]1C(=O)O.O=C(O)/C=C\C(=O)O [ENALAPRIL MALEATE] | Compound NOT metabolized | Compound NOT metabolized | Compound NOT metabolized | Compound NOT metabolized | – | Compound NOT metabolized | Compound NOT metabolized | Compound NOT metabolized | Compound NOT metabolized | Compound NOT metabolized | Compound metabolized | – | Compound NOT metabolized | Compound NOT metabolized | Compound metabolized | Compound NOT metabolized | Compound NOT metabolized | Compound NOT metabolized | – | Compound NOT metabolized
